Reference: PubChem BioAssay (NCI)
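Assay format: 96-well plates, 48-hour exposure. TGI is the concentration that stops growth completely.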

Key:
Experiment in all cases: NCI tumour cell line growth inhibition, 48 h
[1] = tested on: UO-31 renal
[2] = tested on: HCT-15 colon
[3] = tested on: K-562 leukemia
[4] = tested on: ACHN renal
[5] = tested on: HOP-92 NSCLC
[6] = tested on: SN12C renal
[7] = tested on: NCI-H522 lung
[8] = tested on: SNB-19 CNS
[9] = tested on: NCI-H23 lung
[10] = tested on: NCI-H226 lung
[11] = tested on: DMS 273 small cell lung
[12] = tested on: BT-549 breast
[13] = tested on: U251 CNS
[14] = tested on: OVCAR-5 ovarian
[15] = tested on: DU-145 prostate
[16] = tested on: DMS 114 small cell lung
[17] = tested on: MDA-N
[18] = tested on: SK-MEL-2 melanoma
[19] = tested on: T-47D breast
[20] = tested on: HL-60(TB) leukemia
[21] = tested on: KM20L2 colon
[22] = tested on: TK-10 renal
[23] = tested on: HS 578T breast
[24] = tested on: M14 melanoma
[25] = tested on: SW-620 colon
[26] = tested on: A498 renal
[27] = tested on: COLO 205 colon
[28] = tested on: HCT-116 colon
[29] = tested on: SF-539 CNS
[30] = tested on: SK-MEL-5 melanoma
[31] = tested on: OVCAR-4 ovarian
[32] = tested on: OVCAR-3 ovarian
[33] = tested on: CCRF-CEM leukemia
[34] = tested on: SF-295 CNS
[35] = tested on: SNB-75 CNS
[36] = tested on: HOP-62 NSCLC
[37] = tested on: M19-MEL melanoma
[38] = tested on: SR leukemia
[39] = tested on: UACC-257 melanoma
[40] = tested on: HCC-2998 colon
[41] = tested on: MDA-MB-435
[42] = tested on: DLD-1 colon
[43] = tested on: RXF-631 renal
[44] = tested on: LOX IMVI melanoma
[45] = tested on: 786-0 renal
[46] = tested on: MCF7 breast
[47] = tested on: MOLT-4 leukemia
[48] = tested on: KM12 colon
[49] = tested on: MDA-MB-231 breast
[50] = tested on: A549 NSCLC
[51] = tested on: SF-268 CNS
[52] = tested on: CAKI-1 renal
[53] = tested on: SK-MEL-28 melanoma
[54] = tested on: OVCAR-8 ovarian
[55] = tested on: IGROV1 ovarian
[56] = tested on: RPMI-8226 leukemia
[57] = tested on: XF 498 CNS
[58] = tested on: SK-OV-3 ovarian
[59] = tested on: PC-3 prostate
[60] = tested on: HT29 colon
[61] = tested on: RXF 393 renal
[62] = tested on: NCI-H460 lung
[63] = tested on: HOP-18 NSCLC
[64] = tested on: UACC-62 melanoma
[65] = tested on: SNB-78 CNS
[66] = tested on: LXFL 529 NSCLC
[67] = tested on: MALME-3M melanoma
[68] = tested on: EKVX NSCLC
[69] = tested on: NCI/ADR-RES ovarian
[70] = tested on: SN12K1 renal
[71] = tested on: P388/ADR leukemia
[72] = tested on: P388 leukemia

CC(=O)N(O)CCCCCNC(=O)CCC(=O)N(O)CCCCCNC(=O)CCC(=O)N(O)CCCCCN
TGI [1]: > 100 µM | TGI [2]: > 100 µM | TGI [3]: > 100 µM | TGI [4]: > 100 µM | TGI [5]: > 100 µM | TGI [6]: > 100 µM | TGI [7]: > 100 µM | TGI [8]: > 100 µM | TGI [9]: > 100 µM | TGI [10]: > 92.3 µM | TGI [11]: > 100 µM | TGI [12]: > 100 µM | TGI [13]: > 100 µM | TGI [14]: 84 µM | TGI [15]: > 60.1 µM | TGI [16]: > 100 µM | TGI [17]: > 100 µM | TGI [18]: > 100 µM | TGI [19]: > 100 µM | TGI [20]: > 76.9 µM | TGI [21]: > 100 µM | TGI [22]: > 100 µM | TGI [23]: > 100 µM | TGI [24]: > 100 µM | TGI [25]: > 100 µM | TGI [26]: > 100 µM | TGI [27]: > 100 µM | TGI [28]: > 100 µM | TGI [29]: > 92.3 µM | TGI [30]: > 85.5 µM | TGI [31]: > 100 µM | TGI [32]: > 100 µM | TGI [33]: > 54.4 µM | TGI [34]: > 100 µM | TGI [35]: > 100 µM | TGI [36]: > 100 µM | TGI [37]: > 100 µM | TGI [38]: > 77.5 µM | TGI [39]: > 100 µM | TGI [40]: > 100 µM | TGI [41]: > 100 µM | TGI [42]: > 100 µM | TGI [43]: > 100 µM | TGI [44]: > 100 µM | TGI [45]: > 100 µM | TGI [46]: > 100 µM | TGI [47]: > 82.8 µM | TGI [48]: > 100 µM | TGI [49]: > 100 µM | TGI [50]: > 100 µM | TGI [51]: > 100 µM | TGI [52]: > 100 µM | TGI [53]: > 100 µM | TGI [54]: > 100 µM | TGI [55]: > 100 µM | TGI [56]: > 100 µM | TGI [57]: > 100 µM | TGI [58]: > 100 µM | TGI [59]: > 100 µM | TGI [60]: > 100 µM | TGI [61]: > 100 µM | TGI [62]: > 54.9 µM | TGI [63]: 83.2 µM | TGI [64]: > 100 µM | TGI [65]: > 100 µM | TGI [66]: > 100 µM | TGI [67]: > 100 µM | TGI [68]: > 100 µM | TGI [69]: > 100 µM

COc1cc2c(oc(=O)c3cc(C)cc(OC)c32)c2c(C3OC(C)C(O)C(C)(O)C3O)ccc(O)c12 (stereo unspecified)
TGI [1]: 3.19 µM | TGI [2]: 3.65 µM | TGI [3]: 3.73 µM | TGI [5]: 4.32 µM | TGI [6]: 2.39 µM | TGI [7]: 1.73 µM | TGI [8]: 4.63 µM | TGI [9]: 2.16 µM | TGI [10]: 1.21 µM | TGI [11]: 1.27 µM | TGI [70]: 1.51 µM | TGI [13]: 2.42 µM | TGI [14]: 2.89 µM | TGI [16]: 1.17 µM | TGI [18]: 1.56 µM | TGI [20]: 0.251 µM | TGI [21]: 5.04 µM | TGI [25]: 7.74 µM | TGI [26]: 1.29 µM | TGI [27]: 1.41 µM | TGI [28]: 6.12 µM | TGI [29]: 1.73 µM | TGI [30]: 1.79 µM | TGI [31]: 2.14 µM | TGI [71]: 3.41 µM | TGI [32]: 2.51 µM | TGI [33]: 2.41 µM | TGI [34]: 1.29 µM | TGI [35]: 1.46 µM | TGI [36]: 1.08 µM | TGI [37]: 1.64 µM | TGI [39]: 1.62 µM | TGI [40]: 1.76 µM | TGI [42]: 4.56 µM | TGI [44]: 1.71 µM | TGI [46]: 3.99 µM | TGI [47]: 0.875 µM | TGI [48]: 5.41 µM | TGI [50]: 7.4 µM | TGI [51]: 2.1 µM | TGI [52]: 2.06 µM | TGI [53]: 1.85 µM | TGI [54]: 1.99 µM | TGI [55]: 5.59 µM | TGI [56]: 1.92 µM | TGI [57]: 1.15 µM | TGI [58]: 4.45 µM | TGI [72]: 2.03 µM | TGI [60]: 4.81 µM | TGI [61]: 1.18 µM | TGI [62]: 0.763 µM | TGI [63]: 5.3 µM | TGI [64]: 1.13 µM | TGI [65]: 5.32 µM | TGI [67]: 1.45 µM | TGI [68]: 2.31 µM | TGI [69]: 2.51 µM
